Results as given in patent publication US8258182B2, “Substituted 1,3-diphenylpropane derivatives, preparations and uses thereof” (Genfit, priority 2006, dated 2012).

How the values were obtained:
ApoE2/E2 mice = test: Plasma lipids in dyslipidemic ApoE2/E2 mice after per os treatment; format: in vivo, mouse; details: 3 and 10 mpk per os, 14 days, vs control animals (FIG. 2-3)
Protocol: The dyslipidemic E2/E2 mouse's rates of total cholesterol, of triglycerides, and plasma free fatty acids are measured after 8 or 14 days of a per os treatment with the compounds according to the invention.
The hypolipidemic properties of the compounds according to the invention are evaluated in vivo by assaying plasma lipids and the analysis of the PPARs target genes expression in the liver after a treatment treating of the dyslipidemic E2/E2 mice with the compounds according to the invention.
The murine model used is the ApoE2/E2 mouse, a transgenic mouse having the human apolipoprotein E isoform E2 (Sullivan P M et al., 1998). In human, this apolipoprotein, a constituent of low and very low density lipoproteins (LDL-VLDL), is present in three isoforms E2, E3, and E4. The E2 form presents a mutation affecting the amino acid in position 158, which considerably weakens the affinity of this protein for LDL receptors. Accordingly, the VLDL clearance is nearly non-existent. An accumulation of low-density lipoproteins then occurs along with a mixed hyperlipidemia known as type III (elevated cholesterol and triglycerides).
The ApoE2/E2 transgenic mice were kept on a 12 hour/12 hour light/dark cycle at a constant temperature of 20±3° C. After a one week acclimatization period, the mice were weighed and divided into groups of 6 animals selected so as to render uniform the distribution of their body weights and plasma lipid rates, determined before the experiment. The tested compounds were suspended in carboxymethylcellulose (Sigma C4888) and administered by intra-gastric tube feeding once a day for 8 days (for compound 1) or 14 days (for compound 8) with the chosen doses. […] Taking of food and weight gain are recorded throughout the experiment. […]
Plasma lipid concentrations (total cholesterol and triglycerides) are measured by enzymatic doses (bioMérieux-Lyon-France) according to the provider's recommendations.
Plasma cholesterol and triglycerides rates are measured after 8 or 14 days of a per os treatment with the compounds according to the invention. […]

[1] = system: PPARs target genes (PDK4, ACO, UCP2) in hepatic and skeletal muscle tissue; test: Expression of PPAR target genes in liver and skeletal muscle of db/db mice (quantitative RT-PCR); format: in vivo, mouse; details: 50 mpk
Protocol: The effectiveness of the compounds according to the invention is also evaluated by measuring, in hepatic and muscular (skeletal) tissue, the expression of the genes involve in lipid and/or carbohydrate metabolism and in energy dissipation. Each level of gene expression is normalized in regarding the expression level of reference gene 36B4 in the hepatic tissue, or regarding the expression level of reference gene 18S in the gastrocnemius skeletal muscle. The induction factor, i.e. the ratio between the relative signal (induced by the compound according to the invention) and the average of relative values relating to the control group, is then calculated. The higher the induction factor is, the more the compound promotes gene expression. The final result is expressed as an average of the induction values obtained with each experimental group.
Female db/db mice were kept on a 12 hour/12 hour light/dark cycle at a constant temperature of 20±3° C. After a one week acclimatization period, the mice were weighed and divided into groups of 8 animals selected such as the distribution of body weight and of plasma lipid rate, determined before the experiment, was uniform. […] Taking of food and weight gain are recorded throughout the experiment. […]
1 μg of total RNA (quantified by spectrophotometry) was then reverse-transcripted into complementary DNA by means of a 1 hour reaction at 37° C. in a total volume of 20 μl containing a 1× buffer (Sigma), 1.5 mM of DTT, 0.18 mM of dNTPs (Promega), 200 ng of pdN6 (Amersham), 30U of RNase inhibitor (Sigma), and 1 μl of MMLV-RT (Sigma).
The PCR quantitative experiments were carried out using the MyiQ Single-Color Real-Time PCR Detection System (Biorad, Marnes-la-Coquette, France) and were performed using the iQ SYBR Green Supermix kit according to the provider's recommendations, in 96-well plates, with 5 μl of diluted reverse transcription solutions and at a hybridization temperature of 55° C. […]
The fluorescent quantity emitted is directly proportional to the amount of cDNA present at the beginning of the reaction and amplified during the PCR. […]

Structure (SMILES): CCCOc1ccc(C(=O)CCc2cc(C)c(OC(C)(C)C(=O)O)c(C)c2)cc1 [Compound 8, 2-[2,6-dimethyl-4-[3-[4-(propyloxy)phenyl]-3-oxo-propyl]phenoxyl]-2-methylpropanoic acid]
- plasma total cholesterol rates (ApoE2/E2 mice): very significantly decreased
- hepatic expression of the genes coding for PDK4 ([1]; 28 days (FIG. 3-4)): significant increase
- hepatic expression of the genes coding for ACO ([1]; 28 days (FIG. 3-5)): significant increase
- expression of the gene coding for UCP2 in the skeletal muscle ([1]; 28 days (FIG. 3-6)): increase
